Test results reported in PubChem BioAssay (NCI).
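Cultured in 96-well plates, cells were exposed to test compound for 48 hours across five concentrations. At the GI50, growth is halved. At the TGI there is no net growth.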

Tests used:
Experiment in all cases: inhibition of tumour cell growth, NCI panel, 48 h
[1] = test system: DLD-1 colon
[2] = test system: DMS 114 small cell lung
[3] = test system: DMS 273 small cell lung
[4] = test system: EKVX NSCLC
[5] = test system: HCC-2998 colon
[6] = test system: HOP-18 NSCLC
[7] = test system: KM20L2 colon
[8] = test system: MOLT-4 leukemia
[9] = test system: NCI/ADR-RES ovarian
[10] = test system: SW-620 colon
[11] = test system: MDA-MB-231 breast
[12] = test system: 786-0 renal
[13] = test system: LXFL 529 NSCLC
[14] = test system: M19-MEL melanoma

Compound | TGI [1] [µM] | TGI [2] [µM] | TGI [3] [µM] | TGI [4] [µM] | TGI [5] [µM] | TGI [6] [µM] | TGI [7] [µM] | TGI [8] [µM] | TGI [9] [µM] | TGI [10] [µM] | GI50 [4] [µM] | GI50 [5] [µM] | GI50 [11] [µM] | TGI [11] [µM] | GI50 [8] [µM] | GI50 [9] [µM] | GI50 [10] [µM] | TGI [12] [µM] | TGI [13] [µM] | TGI [14] [µM]
COc1ccc(OCC(C)(C)O)cc1 | > 100 | > 100 | > 100 | > 100 | > 100 | > 100 | > 100 | > 100 | > 100 | > 100 | – | – | – | – | – | – | – | – | – | –
CCCCCCCCCC[N+](C)(C)C | – | – | – | 30.5 | 3.53 | – | – | 3.43 | 49.6 | 10.1 | 3.66 | 1.58 | 1.59 | 4.38 | 1.59 | 15.1 | 2.13 | – | – | –
COc1ccc2c(c1)c(=O)c1c(NCCCN(C)C)ccc3ncn2c31 | 17.8 | 22.6 | 15.5 | 27 | 9.86 | 28.6 | 17.1 | 13.9 | 16.4 | 15.3 | – | – | – | – | – | – | – | 14.9 | 19.8 | 24.8
CSS(C)(=O)=O | – | – | – | 66.2 | 71.2 | – | – | 10.1 | > 100 | > 100 | – | – | – | > 100 | – | – | – | > 100 | – | –
CCOC(=O)/C=C/c1c[nH]c(=O)[nH]c1=O | > 75 | > 75 | > 75 | > 75 | > 75 | > 75 | > 75 | > 48.7 | > 75 | > 75 | – | – | – | – | – | – | – | – | – | > 75
c1ccc(N2N=C3N(c4ccccc4)C2N3c2ccccc2)cc1 | – | – | – | > 100 | 77.5 | – | – | 62.5 | > 100 | > 100 | – | – | – | > 100 | – | – | – | – | – | –
COc1ccc(-c2c3c(nc4[nH]c(=S)[nH]c(=S)c24)CCCC3)cc1OC | – | – | – | 76.9 | – | – | – | 61.2 | 66.1 | > 100 | – | – | – | > 100 | – | – | – | – | – | –
CCOC(=O)C1=C(C)N(C2OC(COC(C)=O)C(OC(C)=O)C(OC(C)=O)C2OC(C)=O)C(=O)NC1c1ccccc1 (stereo not given) | > 100 | > 100 | – | > 100 | > 100 | > 100 | > 100 | > 100 | – | > 100 | – | – | – | – | – | – | – | – | > 100 | > 100
CC(c1ccccc1)C(O)S(=O)(=O)O (stereo not given) | – | > 100 | > 100 | > 100 | – | > 100 | > 100 | > 100 | – | > 100 | – | – | – | – | – | – | – | > 100 | > 100 | > 100
CCCCn1c(C)c2c(c1C)C(=O)N(CCN1CCN(c3ccccc3Cl)CC1)C2=O | – | – | – | > 100 | 72.5 | – | – | 52.2 | > 100 | > 100 | – | – | – | > 100 | – | – | – | – | – | –
